30 compounds from US20250145561A1, “4-SUBSTITUTED-PHENYL ACETAMIDES AND ARYLUREAS AS AGONISTS FOR THE ORPHAN RECEPTOR GPR88” (RESEARCH TRIANGLE INSTITUTE, priority 2022, published 2025) can be followed below.

The experiment concerns the target T1, GPR88 (Homo sapiens, UniProt Q9GZN0).
T1 construct: expressed in transfected cells
Kind of experiment: Lance Ultra TR-FRET cAMP assay using stable PPLS-HA-GPR88 CHO cells. The experiment is classed as cell-based. Conditions: for Emax: CHO; for EC50 / cAMP pEC50: stable PPLS-HA-GPR88 CHO cells; for EC50: value in parentheses beside pEC50; for cAMP pEC50: 300 nM forskolin, mean ± standard error of at least three independent experiments in duplicate. As to the method:
The compounds of the present disclosure offer potent agonism to the orphan receptor GPR88. As such, the compounds of the present disclosure provide therapeutic potential for the treatment of striatal associated disorders such as Parkinson's disease, schizophrenia, and alcohol addiction. All compounds were evaluated for the GPR88 agonist activity in the inventors' previously established in vitro GPR88 Lance TR-FRET cAMP assay. See, supra, Jin et al., 2018, Rahman et al., 2020, and Rahman et al., 2021. As will be described, the TR-FRET signal was converted to fmol cAMP by interpolating from the standard cAMP curve. Fmol cAMP was plotted against the log of compound concentration and data were fit to a three-parameter logistic curve to generate maximum response (Emax) and EC50 values.
Lance™ Ultra cAMP assay using stable PPLS-HA-GPR88 CHO cells. All cAMP assays were performed using the inventors' previously published methods. […] ACS Chemical Neuroscience 2016, 7, 1418-1432, which is incorporated by reference herein with regard to such teaching. Stimulation buffer containing 1× Hank's Balanced Salt Solution (HBSS), 5 mM HEPES, 0.1% BSA stabilizer, and 0.5 mM final IBMX was prepared and titrated to pH 7.4 at room temperature. Serial dilutions of the test compounds (5 μL) and 300 nM forskolin (5 μL), both prepared at 4× the desired final concentration in 2% DMSO/stimulation buffer, were added to a 96-well white ½ area microplate (PerkinElmer). A cAMP standard curve was prepared at 4× the desired final concentration in stimulation buffer and 5 μL was added to the assay plate. Stable PPLS-HA-GPR88 CHO cells were lifted with versene and spun at 270 g for 10 minutes. The cell pellet was resuspended in stimulation buffer and 4,000 cells (10 μL) were added to each well except wells containing the cAMP standard curve. After incubating for 30 min at room temperature, Eu-cAMP tracer and uLIGHT-anti-cAMPworking solutions were added per the manufacturer's instructions. After incubation at room temperature for 1 hour, the TR-FRET signal (ex 337 nm) was read on a CLARIOstar multimode plate reader (BMG Biotech, Cary, NC).
Data Analysis. The TR-FRET signal (665 nm) was converted to fmol cAMP by interpolating from the standard cAMP curve. Fmol cAMP was plotted against the log of compound concentration and data were fit to a three-parameter logistic curve to generate EC50 values (Prism, version 6.0, GraphPad Software, Inc., San Diego, CA).

T1 sequence (Q9GZN0 whole entry): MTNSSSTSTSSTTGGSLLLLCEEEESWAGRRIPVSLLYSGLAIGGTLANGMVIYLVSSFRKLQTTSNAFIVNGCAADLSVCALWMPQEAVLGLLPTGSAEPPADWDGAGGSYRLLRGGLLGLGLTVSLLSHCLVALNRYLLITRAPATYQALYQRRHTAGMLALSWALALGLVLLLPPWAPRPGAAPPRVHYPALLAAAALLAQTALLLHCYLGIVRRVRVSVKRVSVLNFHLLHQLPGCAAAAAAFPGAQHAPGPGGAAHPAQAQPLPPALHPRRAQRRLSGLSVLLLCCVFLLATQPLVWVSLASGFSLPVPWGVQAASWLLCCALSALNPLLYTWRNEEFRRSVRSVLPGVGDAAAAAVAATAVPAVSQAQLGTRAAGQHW

As for `CCCc1ccc(-c2ccc(C(C(=O)N[C@H](C)c3ccccc3)C(=O)OC)cc2)cc1` (mixture of isomers) [Compound 28, Methyl 2-{[(1 R)-1-Phenylethyl]carbamoyl}-2-{4′-propyl-[1,1′-biphenyl]-4-yl}acetate], the maximum response (Emax) came out at 99 ± 6% and the EC50 is 1.29 µM.
As for `CCCc1ccc(-c2ccc(C(C(=O)NC)C(=O)N[C@H](C)c3ccccc3)cc2)cc1` (mixture of isomers) [Compound 29, N-Methyl-N′-[(1 R)-1-phenylethyl]-2-{4′-propyl-[1,1′-biphenyl]-4-yl}propanediamide], the Emax was 105 ± 2% and the EC50 is 1.38 µM.
`CCCC(C)COc1ccc([C@H](CO)C(=O)N[C@H](C)c2ccccc2)cc1` (stereo partly drawn) [Compound 3, (2R)-3-Hydroxy-2-{4-[(2-methylpentyl)oxy]phenyl}-N-[(1 R)-1-phenylethyl]propanamide] showed a maximal effect (Emax) of 77 ± 4%.
As for `CCCC(C)COc1ccc([C@@H](CO)C(=O)N[C@H](C)c2ccccc2)cc1` (stereo partly drawn) [Compound 4, (2S)-3-Hydroxy-2-{4-[(2-methylpentyl)oxy]phenyl}-N-[(1 R)-1-phenylethyl]propenamide], the Emax was 94 ± 13% and the EC50 is 0.2 µM.
In the case of `CCCC(C)COc1ccc([C@@H](CO)C(=O)N[C@@H](C)c2ccccc2)cc1` (stereo partly drawn) [Compound 5, (2S)-3-Hydroxy-2-{4-[(2-methylpentyl)oxy]phenyl}-N-[(1S)-1-phenylethyl]propenamide], the “cAMP pEC50” value is “Inactive”.
The same measure, in the same setting: with `CCCC(C)COc1ccc([C@H](CO)C(=O)N[C@@H](C)c2ccccc2)cc1` (stereo partly drawn) [Compound 6, (2R)-3-Hydroxy-2-{4-[(2-methylpentyl)oxy]phenyl}-N-[(1 S)-1-phenylethyl]propenamide] the entry was “Inactive”.
Turning to `CC[C@H](C)COc1ccc([C@@H](CO)C(=O)N[C@H](C)c2ccccc2)cc1` [Compound 7, (2S)-3-Hydroxy-2-{4-[(2S)-2-methylbutoxy]phenyl}-N-[(1 R)-1-phenylethyl]propenamide], the Emax stood at 88 ± 7% and the EC50 is 2 µM.
Taken in the same sequence, the figures for `CC[C@@H](C)COc1ccc([C@@H](CO)C(=O)N[C@H](C)c2ccccc2)cc1` [Compound 8, (2S)-3-Hydroxy-2-{4-[(2R)-2-methylbutoxy]phenyl}-N-[(1 R)-1-phenylethyl]propenamide] were 96 ± 13% and 3.09 µM.
Turning to `CCCC(C)COc1ccc([C@@H](CO)C(=O)N[C@H](C)c2ccccc2C)cc1` (stereo partly drawn) [Compound 9, (2S)-3-Hydroxy-2-{4-[(2-methylpentyl)oxy]phenyl}-N-[(1 R)-1-(2-methylphenyl)ethyl]propenamide], the maximal effect (Emax) came to 48 ± 8%.
In turn, `CCCC(C)COc1ccc([C@@H](CO)C(=O)N[C@H](C)c2cccc(C)c2)cc1` (stereo partly drawn) [Compound 10, (2S)-3-Hydroxy-2-{4-[(2-methylpentyl)oxy]phenyl}-N-[(1 R)-1-(3-methylphenyl)ethyl]propenamide] showed an Emax of 100 ± 3%.
Compound `CCCC(C)COc1ccc([C@@H](CO)C(=O)N[C@H](C)c2ccc(C)cc2)cc1` (stereo partly drawn) [Compound 11, (2S)-3-Hydroxy-2-{4-[(2-methylpentyl)oxy]phenyl}-N-[(1 R)-1-(4-methylphenyl)ethyl]propenamide] yielded an Emax of 102 ± 7%.
Turning to `CCCC(C)COc1ccc([C@@H](CO)C(=O)N[C@H](C)c2ccc(F)cc2)cc1` (stereo partly drawn) [Compound 12, (2S)—N-[(1 R)-1-(4-Fluorophenyl)ethyl]-3-hydroxy-2-{4-[(2-methylpentyl)oxy]phenyl}propenamide], the maximal response (Emax) came to 92 ± 3%.
Compound `CCCC(C)COc1ccc([C@@H](CO)C(=O)N[C@H](C)c2ccc(OC)cc2)cc1` (stereo partly drawn) [Compound 13, (2S)-3-Hydroxy-N-[(1 R)-1-(4-methoxyphenyl)ethyl]-2-{4-[(2-methylpentyl)oxy]phenyl}propenamide] displayed an Emax of 94 ± 3%.
As for `CCCC(C)COc1ccc([C@@H](CO)C(=O)Nc2ccccc2)cc1` (stereo partly drawn) [Compound 14, (2S)-3-Hydroxy-2-{4-[(2-methylpentyl)oxy]phenyl}-N-phenylpropanamide], the “cAMP pEC50” value is recorded as “Inactive”.
As for `CCCC(C)COc1ccc([C@@H](CO)C(=O)NCc2ccccc2)cc1` (stereo partly drawn) [Compound 15, (2S)—N-Benzyl-3-hydroxy-2-{4-[(2-methylpentyl)oxy]phenyl}propenamide], the maximal response (Emax) stood at 99 ± 9%.
For `CCCC(C)COc1ccc([C@@H](CO)C(=O)NCCc2ccccc2)cc1` (stereo partly drawn) [Compound 16, (2S)-3-Hydroxy-2-{4-[(2-methylpentyl)oxy]phenyl}-N-(2-phenylethyl)propenamide], the Emax came to 97 ± 5%.
Take `CCCC(C)COc1ccc([C@@H](CO)C(=O)N[C@H](CC)c2ccccc2)cc1` (stereo partly drawn) [Compound 17, (2S)-3-Hydroxy-2-{4-[(2-methylpentyl)oxy]phenyl}-N-[(1 R)-1-phenylpropyl]propenamide]: the Emax was determined as 102 ± 8%.
The same measure, in the same setting: the result for `CCCC(C)COc1ccc([C@@H](CO)C(=O)N[C@H](COC)c2ccccc2)cc1` (stereo partly drawn) [Compound 18, (2S)-3-Hydroxy-N-[(1 S)-2-methoxy-1-phenylethyl]-2-{4-[(2-methylpentyl)oxy]phenyl}propenamide] reads 91 ± 4%.
Turning to `CCCC(C)COc1ccc([C@@H](CO)C(=O)NC(C)(C)c2ccccc2)cc1` (stereo partly drawn) [Compound 19, (2S)-3-Hydroxy-2-{4-[(2-methylpentyl)oxy]phenyl}-N-(2-phenylpropan-2-yl)propenamide], the Emax amounted to 83 ± 2%, the “cAMP pEC50” value is on record as 5.90 ± 0.05 and the 50% effective concentration (EC50) was 1.26 µM.
In turn, `CCCC(C)COc1ccc([C@@H](CO)C(=O)NC2(c3ccccc3)CC2)cc1` (stereo partly drawn) [Compound 20, (2S)-3-Hydroxy-2-{4-[(2-methylpentyl)oxy]phenyl}-N-(1-phenylcyclopropyl)propenamide] yielded an Emax of 81 ± 8%.
`CCCC(C)COc1ccc([C@@H](CO)C(=O)N[C@H](C)c2ccccn2)cc1` (stereo partly drawn) [Compound 21, (2S)-3-Hydroxy-2-{4-[(2-methylpentyl)oxy]phenyl}-N-[(1 R)-1-(pyridin-2-yl)ethyl]propenamide]: the maximal response (Emax) stood at 93 ± 4%.
`CCCC(C)COc1ccc([C@@H](CO)C(=O)N[C@H](C)c2ccco2)cc1` (stereo partly drawn) [Compound 22, (2S)—N-[(1 R)-1-(Furan-2-yl)ethyl]-3-hydroxy-2-{4-[(2-methylpentyl)oxy]phenyl}propenamide] came in with an Emax of 108 ± 6%.
Regarding `CCCC(C)COc1ccc([C@@H](CO)C(=O)N[C@H](C)c2cccs2)cc1` (stereo partly drawn) [Compound 23, (2S)-3-Hydroxy-2-{4-[(2-methylpentyl)oxy]phenyl}-N-[(1 R)-1-(thiophen-2-yl)ethyl]propenamide], the Emax is 93 ± 5%.
`CCCC(C)COc1ccc([C@@H](CO)C(=O)N[C@@H]2C[C@H]2c2ccccc2)cc1` (stereo partly shown) [Compound 24]: the Emax is 83 ± 5%.
With `CCCc1ccc(-c2ccc([C@@H](CO)C(=O)N[C@H](C)c3ccccc3)cc2)cc1` [Compound 25, (2S)-3-Hydroxy-N-[(1 R)-1-phenylethyl]-2-{4′-propyl-[1,1′-biphenyl]-4-yl}propenamide], the Emax came out at 96 ± 3% and the 50% effective concentration (EC50) is 0.138 µM.
Taken in the same sequence, the figures for `CCCc1ccc(-c2ccc(CC(=O)N[C@H](C)c3ccccc3)cc2)cc1` [Compound 26, N-[(1 R)-1-Phenylethyl]-2-{4′-propyl-[1,1′-biphenyl]-4-yl}acetamide] were 95 ± 5% and 0.257 µM.
Taken in the same sequence, the figures for `CCCc1ccc(-c2ccc([C@@H](CC)C(=O)N[C@H](C)c3ccccc3)cc2)cc1` [Compound 27, (2R)—N-[(1 R)-1-Phenylethyl]-2-{4′-propyl-[1,1′-biphenyl]-4-yl}butanamide] were 93 ± 9% and 0.501 µM.
Take `CCCc1ccc(-c2ccc([C@@H](Cn3cncn3)C(=O)N[C@H](C)c3ccccc3)cc2)cc1` [Compound 30]: the Emax worked out at 96 ± 3% and the EC50 was 1.1 µM.
As for `CCCc1ccc(-c2ccc([C@@H](Cn3ccnn3)C(=O)N[C@H](C)c3ccccc3)cc2)cc1` [Compound 31, (2S)—N-[(1 R)-1-Phenylethyl]-2-{4′-propyl-[1,1′-biphenyl]-4-yl}-3-(1H-1,2,3-triazol-1-yl)propenamide], the maximal effect (Emax) came to 96% and the EC50 is 0.631 µM.
For `C[C@@H](NC(=O)[C@H](CO)c1ccc(-c2ccc(C3CCC3)cc2)cc1)c1ccccc1` [Compound 32, (2S)-2-{4′-Cyclobutyl-[1,1′-biphenyl]-4-yl}-3-hydroxy-N-[(1 R)-1-phenylethyl]propenamide] the same measures were 74 ± 7% and 0.355 µM.

The Emax is the greatest response seen or fitted, relative to the assay's reference. As usually defined, the EC50 is the concentration at which the effect is half-maximal.
